Laboratory results taken from ChEMBL document CHEMBL1201862, “PubChem BioAssay data set” (2004).
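The compound was tested at five concentrations on cells cultured in 96-well plates, with a 48-hour exposure period. Here, GI50 denotes the concentration required for 50% inhibition of growth.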 Active and inactive are the calls of the source. Rule as the data show it: active = GI50 up to about 1.1 µM and inactive = higher.

Assays:
Experiment in all cases: NCI tumour cell line growth inhibition, 48 h
786-0 = test system: 786-0
A498 = test system: A498
A549 = test system: A549
ACHN = test system: ACHN
BT-549 = test system: BT-549
CAKI-1 = test system: CAKI-1
CCRF-CEM = test system: CCRF-CEM
COLO 205 = test system: COLO 205
DU-145 = test system: DU-145
EKVX = test system: EKVX
HCC 2998 = test system: HCC 2998
HCT-116 = test system: HCT-116
HCT-15 = test system: HCT-15
HL-60 = test system: HL-60
HOP-62 = test system: HOP-62
HOP-92 = test system: HOP-92
HT-29 = test system: HT-29
Hs-578T = test system: Hs-578T
IGROV-1 = test system: IGROV-1
K562 = test system: K562
KM12 = test system: KM12
LOX IMVI = test system: LOX IMVI
M14 = test system: M14
MCF7 = test system: MCF7
MDA-MB-231 = test system: MDA-MB-231
MDA-MB-435 = test system: MDA-MB-435
MDA-N = test system: MDA-N
Malme-3M = test system: Malme-3M
NCI-H226 = test system: NCI-H226
NCI-H23 = test system: NCI-H23
NCI-H460 = test system: NCI-H460
NCI-H522 = test system: NCI-H522
NCI/ADR-RES = test system: NCI/ADR-RES
OVCAR-3 = test system: OVCAR-3
OVCAR-4 = test system: OVCAR-4
OVCAR-5 = test system: OVCAR-5
OVCAR-8 = test system: OVCAR-8
PC-3 = test system: PC-3
RPMI-8226 = test system: RPMI-8226
RXF 393 = test system: RXF 393
SF-268 = test system: SF-268
SF-295 = test system: SF-295
SF-539 = test system: SF-539
SK-MEL-28 = test system: SK-MEL-28
SK-MEL-2 = test system: SK-MEL-2
SK-MEL-5 = test system: SK-MEL-5
SK-OV-3 = test system: SK-OV-3
SN12C = test system: SN12C
SNB-19 = test system: SNB-19
SNB-75 = test system: SNB-75
SR = test system: SR
SW-620 = test system: SW-620
T47D = test system: T47D
TK-10 = test system: TK-10
U-251 = test system: U-251
UACC-257 = test system: UACC-257
UACC-62 = test system: UACC-62
UO-31 = test system: UO-31
MOLT-4 = test system: MOLT-4

**Q.** What does the source list for `O=c1c2ccccc2nc(-c2ccccc2)n1O`?
**A.** GI50 (786-0): > 100 µM (inactive); GI50 (A498): > 100 µM (inactive); GI50 (A549): 71.8 µM (inactive); GI50 (ACHN): > 100 µM (inactive); GI50 (BT-549): > 100 µM (inactive); GI50 (CAKI-1): 8.47 µM (inactive); GI50 (CCRF-CEM): 19.6 µM (inactive); GI50 (COLO 205): > 100 µM (inactive); GI50 (DU-145): > 100 µM (inactive); GI50 (EKVX): > 100 µM (inactive); GI50 (HCC 2998): > 100 µM (inactive); GI50 (HCT-116): 55.8 µM (inactive); GI50 (HCT-15): 41.1 µM; GI50 (HL-60): 54 µM (inactive); GI50 (HOP-62): 5.28 µM (inactive); GI50 (HOP-92): 22.9 µM (inactive); GI50 (HT-29): > 100 µM (inactive); GI50 (Hs-578T): > 100 µM (inactive); GI50 (IGROV-1): 56.8 µM (inactive); GI50 (K562): 30.9 µM (inactive); GI50 (KM12): 67 µM (inactive); GI50 (LOX IMVI): 76.6 µM (inactive); GI50 (M14): 95.7 µM (inactive); GI50 (MCF7): 95.9 µM (inactive); GI50 (MDA-MB-231): > 100 µM (inactive); GI50 (MDA-MB-435): > 100 µM (inactive); GI50 (MDA-N): > 100 µM (inactive); GI50 (Malme-3M): > 100 µM (inactive); GI50 (NCI-H226): 73.5 µM (inactive); GI50 (NCI-H23): 71 µM (inactive); GI50 (NCI-H460): 64.1 µM (inactive); GI50 (NCI-H522): > 100 µM (inactive); GI50 (NCI/ADR-RES): 32.4 µM (inactive); GI50 (OVCAR-3): 51.6 µM (inactive); GI50 (OVCAR-4): 55.5 µM (inactive); GI50 (OVCAR-5): > 100 µM (inactive); GI50 (OVCAR-8): 51.5 µM (inactive); GI50 (PC-3): > 100 µM (inactive); GI50 (RPMI-8226): 28.6 µM (inactive); GI50 (RXF 393): 31.3 µM (inactive); GI50 (SF-268): > 100 µM (inactive); GI50 (SF-295): 35.3 µM (inactive); GI50 (SF-539): > 100 µM (inactive); GI50 (SK-MEL-28): > 100 µM (inactive); GI50 (SK-MEL-2): > 100 µM (inactive); GI50 (SK-MEL-5): 70.8 µM (inactive); GI50 (SK-OV-3): > 100 µM (inactive); GI50 (SN12C): > 100 µM (inactive); GI50 (SNB-19): > 100 µM (inactive); GI50 (SNB-75): 87.3 µM (inactive); GI50 (SR): 23.3 µM (inactive); GI50 (SW-620): > 100 µM (inactive); GI50 (T47D): 45.6 µM (inactive); GI50 (TK-10): > 100 µM (inactive); GI50 (U-251): > 100 µM (inactive); GI50 (UACC-257): > 100 µM (inactive); GI50 (UACC-62): > 100 µM (inactive); GI50 (UO-31): 8.53 µM (inactive)

**Q.** Which GI50 (786-0) does the source give for `CCCC1(NC(=O)C(F)(F)F)CC(OC)OC2COC(c3ccccc3)OC21` (centres undefined) here?
**A.** 76.2 µM (inactive)

**Q.** And the GI50 (A498)?
**A.** > 100 µM (inactive)

**Q.** What about the GI50 (A549) of the same compound?
**A.** 28.3 µM (inactive)

**Q.** And the GI50 (ACHN)?
**A.** 49.3 µM (inactive)

**Q.** And the GI50 (BT-549)?
**A.** 58.6 µM (inactive)

**Q.** What about the GI50 (CAKI-1) of the same compound?
**A.** 6.31 µM (inactive)

**Q.** What about the GI50 (CCRF-CEM) of the same compound?
**A.** 66.4 µM (inactive)

**Q.** And the GI50 (COLO 205)?
**A.** 21.1 µM (inactive)

**Q.** What about the GI50 (DU-145) of the same compound?
**A.** 79.3 µM (inactive)

**Q.** What about the GI50 (EKVX) of the same compound?
**A.** 36.3 µM (inactive)

**Q.** And the GI50 (HCC 2998)?
**A.** 52.2 µM (inactive)

**Q.** And the GI50 (HCT-116)?
**A.** 42.1 µM (inactive)

**Q.** And the GI50 (HCT-15)?
**A.** 55.7 µM

**Q.** What about the GI50 (HL-60) of the same compound?
**A.** 27.1 µM (inactive)

**Q.** And the GI50 (HOP-62)?
**A.** > 100 µM (inactive)

**Q.** What about the GI50 (HOP-92) of the same compound?
**A.** 9.23 µM (inactive)

**Q.** And the GI50 (Hs-578T)?
**A.** > 100 µM (inactive)

**Q.** What about the GI50 (IGROV-1) of the same compound?
**A.** > 100 µM (inactive)

**Q.** What about the GI50 (K562) of the same compound?
**A.** 35.3 µM (inactive)

**Q.** And the GI50 (LOX IMVI)?
**A.** 64.9 µM (inactive)

**Q.** What about the GI50 (M14) of the same compound?
**A.** 26.8 µM (inactive)

**Q.** What about the GI50 (MCF7) of the same compound?
**A.** 30 µM (inactive)

**Q.** And the GI50 (MDA-MB-231)?
**A.** 95.1 µM (inactive)

**Q.** And the GI50 (MDA-MB-435)?
**A.** 18.1 µM (inactive)

**Q.** And the GI50 (MDA-N)?
**A.** 59.4 µM (inactive)

**Q.** And the GI50 (MOLT-4)?
**A.** 26.2 µM (inactive)

**Q.** And the GI50 (Malme-3M)?
**A.** 44.7 µM (inactive)

**Q.** What about the GI50 (NCI-H226) of the same compound?
**A.** > 100 µM (inactive)

**Q.** What about the GI50 (NCI-H23) of the same compound?
**A.** 34.5 µM (inactive)

**Q.** And the GI50 (NCI-H460)?
**A.** 34 µM (inactive)

**Q.** What about the GI50 (NCI-H522) of the same compound?
**A.** 31.5 µM (inactive)

**Q.** What about the GI50 (NCI/ADR-RES) of the same compound?
**A.** 29.3 µM (inactive)

**Q.** And the GI50 (OVCAR-3)?
**A.** > 100 µM (inactive)

**Q.** What about the GI50 (OVCAR-4) of the same compound?
**A.** 6.25 µM (inactive)

**Q.** And the GI50 (OVCAR-5)?
**A.** > 100 µM (inactive)

**Q.** And the GI50 (OVCAR-8)?
**A.** 51.1 µM (inactive)

**Q.** And the GI50 (PC-3)?
**A.** 32 µM (inactive)

**Q.** What about the GI50 (RPMI-8226) of the same compound?
**A.** > 10 µM (inactive)

**Q.** And the GI50 (RXF 393)?
**A.** 94.6 µM (inactive)

**Q.** And the GI50 (SF-268)?
**A.** > 100 µM (inactive)

**Q.** And the GI50 (SF-295)?
**A.** 50.7 µM (inactive)

**Q.** And the GI50 (SF-539)?
**A.** > 100 µM (inactive)

**Q.** And the GI50 (SK-MEL-28)?
**A.** > 100 µM (inactive)

**Q.** And the GI50 (SK-MEL-2)?
**A.** 26.8 µM (inactive)

**Q.** What about the GI50 (SK-MEL-5) of the same compound?
**A.** 16.9 µM (inactive)

**Q.** What about the GI50 (SK-OV-3) of the same compound?
**A.** 70 µM (inactive)

**Q.** What about the GI50 (SN12C) of the same compound?
**A.** > 100 µM (inactive)

**Q.** What about the GI50 (SNB-19) of the same compound?
**A.** > 100 µM (inactive)

**Q.** And the GI50 (SNB-75)?
**A.** > 100 µM (inactive)

**Q.** And the GI50 (SR)?
**A.** 24.8 µM (inactive)

**Q.** What about the GI50 (SW-620) of the same compound?
**A.** 53 µM (inactive)

**Q.** What about the GI50 (T47D) of the same compound?
**A.** 59.4 µM (inactive)

**Q.** What about the GI50 (U-251) of the same compound?
**A.** 46.7 µM (inactive)

**Q.** What about the GI50 (UACC-257) of the same compound?
**A.** 63.1 µM (inactive)

**Q.** What about the GI50 (UACC-62) of the same compound?
**A.** 55.7 µM (inactive)

**Q.** And the GI50 (UO-31)?
**A.** 35 µM (inactive)
